Assay results from patent US9464064B2, “HCV helicase inhibitors and methods of use thereof” (University of Kansas, priority 2011, dated 2016).

Legend:
[1] = Plasma stability, human; assay type: in vitro ADME; details: percent remaining at 3 hours
Method: Stability of compounds in human plasma (BioChemed Services) and mouse plasma (BioChemed Services) were determined. All liquid was dispensed and transfer steps were performed with the FREEDOM EVO automated liquid handler (Tecan US). Plasma was allowed to thaw at room temperature prior to preparing the assay solution of plasma:1×PBS (1:1). The assay solution was warmed up at 37° C. prior of adding the compound. Immediately after compounds were added, time 0 minute aliquots were promptly collected and mixed with cold acetonitrile (spiked with an internal standard). The remainder of the reaction volume was incubated at 37° C. with shaking. Additional aliquots were collected 180 minutes after the start of the reaction and promptly quenched with cold acetonitrile (spiked with an internal standard). Samples were centrifuged at 3000 rpm for 10 minutes. The amount of compound in the supernatant was determined by LC/MS/MS (Applied Biosystems, Sciex API4000 Q-TRAP) and the percent of parent compound remaining after 180 minutes was calculated by the following formula: % parent compound remaining=[(concentration at 180 minutes/concentration at 0 minutes)×100]. Results reported are the mean of each reaction duplicate, normalized to the internal standard, and expressed as a percent of compound remaining after the incubation time. […]

[2] = Chemical stability (hydrolytic); assay type: physicochemical; details: PBS with 50% acetonitrile, pH 7.4; % remaining after 48 hours at room temperature
Method: The stability of compounds in 1×PBS, pH 7.4, and at room temperature, was determined. Stability was also assessed in the presence of 50% ACN. Compounds were diluted and time 0 hour aliquots were collected and transferred to acetonitrile (spiked with an internal standard). The remainder of the volume was incubated for 48 hours, with additional aliquots collected at different time points (6 total). The amount of compound was determined by LC/MS/MS. The parent compound remaining was calculated by the following formula: % parent compound remaining=[(concentration at x hour/concentration at 0 hour)×100]. Results are the mean of each reaction triplicate, normalized to the internal standard, and expressed as a percent compound remaining after 48 hours.

[3] = target: scNS4A-NS3 (Hepatitis C virus genotype 1b, UniProt Q9WMX2); test: NS3 protease assay (ENZOLYTE 520), full-length; assay type: biochemical, hepatitis C virus genotype 1b(con1); design: other: 100 μM, highest concentration tested; other: versus P4; There is also a His tag
Sequence of scNS4A-NS3 (Q9WMX2 1027-1657): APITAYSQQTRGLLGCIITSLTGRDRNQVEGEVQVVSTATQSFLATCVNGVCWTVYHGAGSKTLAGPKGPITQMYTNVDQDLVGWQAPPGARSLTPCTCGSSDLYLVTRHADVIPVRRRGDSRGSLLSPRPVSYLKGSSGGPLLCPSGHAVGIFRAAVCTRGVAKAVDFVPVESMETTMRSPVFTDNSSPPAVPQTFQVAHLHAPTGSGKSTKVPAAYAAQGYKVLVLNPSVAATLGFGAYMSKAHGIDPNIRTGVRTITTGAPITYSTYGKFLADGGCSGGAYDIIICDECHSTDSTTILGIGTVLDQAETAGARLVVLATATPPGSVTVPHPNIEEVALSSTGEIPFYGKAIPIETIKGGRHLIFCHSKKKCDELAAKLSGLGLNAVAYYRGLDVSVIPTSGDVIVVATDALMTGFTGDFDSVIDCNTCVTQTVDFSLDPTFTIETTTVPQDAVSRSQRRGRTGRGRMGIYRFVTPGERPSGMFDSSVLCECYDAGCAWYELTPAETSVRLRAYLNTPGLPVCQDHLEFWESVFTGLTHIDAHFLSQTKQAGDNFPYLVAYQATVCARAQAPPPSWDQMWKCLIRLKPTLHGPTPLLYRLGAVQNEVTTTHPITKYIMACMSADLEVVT
Method: All oligonucleotides were purchased from Integrated DNA Technologies (IDT, Coralville, Iowa). Primuline derivatives were synthesized and purified as described herein. Three different NS3 proteins were used in this study. Two were truncated C-terminally His-tagged NS3 proteins lacking the N-terminal protease, called NS3h, the third was a full-length NS3 with the portion of NS4A needed for protease activation fused to its N-terminus, called scNS4A-NS3 (Howe, et al. (1999) Protein Sci. 8:1332-41), and the fourth was a 23 kDa scNS4A-NS3 protease fragment lacking the helicase domains, called scNS4A-NS3p (Protein One, Rockville, Md.). NS3h was expressed from two different HCV strains. NS3h_1b(con1) was from the con1 strain of genotype 1b (GENBANK accession AB114136), and NS3h_2a(JFH1) was from the JFH1 strain of HCV genotype 2a (GENBANK accession AJ238799). […] His-tagged recombinant NS3h_1b(con1), NS3h_2a(JFH1), and scNS4A-NS3 (also from genotype 1b(con1)) were expressed, and purified as previously described (Frick, et al. (2010) supra; Lam, et al. (2003) J. Virol. 77:3950-3961). […]
All NS3 protease assays were carried out using the 5-Carboxyfluorescein-labeled substrate from the AnaSpec. […] Assays were carried out in a total volume of 20 μl in black 384-well plates with fluorescence at 520 nm measured using a BMG FLUOstar Omega fluorescence spectrophotometer. […]

[4] = Plasma protein binding (RED), human; assay type: in vitro ADME
Method: (§1) TEFLON Base Plate wells were rinsed with 20% ethanol for 10 minutes. Ethanol was then removed and wells were rinsed with ultrapure water and allowed to dry. RED (rapid equilibrium dialysis) inserts from Thermo Scientific (Pierce) were placed (open end up) into the wells of the base plate. All liquid was dispensed and transfer steps were performed with the FREEDOM EVO automated liquid handler (Tecan US). The sample chambers (red ring) contained 300 μl of a mixture of plasma and compound, and the buffer chambers received 500 μl of dialysis buffer (1×PBS, pH7.4). Duplicate inserts were made for each concentration tested. The base plate was covered with sealing tape and incubated at 37° C. on an orbital shaker at 350 rpm for 4 hours. After the incubation time, equal volumes from both chambers were removed and transferred to a 96 well plate containing either plasma or buffer. […] The amount of compound in the supernatant was determined by LC/MS/MS (Applied Biosystems, Sciex API4000 Q-Trap). The percent of free and bound compounds were calculated with the following formula: % of bound parent compound=[(amount of compound in donor-receiver/amount of compound in donor)×100]. Results reported are the mean of each reaction duplicate, normalized to the internal standard, and expressed as a percent compound bound after the incubation time. […]

[5] = Plasma protein binding (RED), mouse; assay type: in vitro ADME
Method: as §1

[6] = tested on: NS3 protease in Huh7.5/HCV Con1sg Rluc cells; test: IPS-1 (MAVS)-based reporter cell-based protease assay; design: species or system hepatitis C virus; details: 10 μM, 72 hours
Method: An IPS-1 (also known as MAVS)-based reporter assay was used for cell-based protease assay. […] RFP-NLS-IPS pseudoparticles were transduced into Huh7.5/HCV Con1sg Rluc cells in a 24-well plate containing cover slips and compounds were added to the cells after 6 hours at a 10 μM concentration and after 72 hours from the first addition, cells were fixed in 1% PFA, washed twice with PBS, mounted on glass slides and microscopic analyses were done.
Microscopy was performed with a Nikon Ti-E inverted fluorescence microscope using a 20× and 40×/NA 1.4 objective. Compounds were imaged using DAPI filter 340/40 band-pass excitation and a 435/50 band pass emission filter. For ALEXA 546 and RFP-NLS-IPS, a 528/25 nm band pass excitation filter and 590/60 nm band-pass emission filter were used. Image acquisition was performed with a Q imaging ROLERA camera and the NIS elements basic research imaging software (Nikon). […]
The assay selected (Jones, et al. (2010) supra) uses a fusion protein made from a NS3 protease cellular target called IPS-1 (also known as MAVS) fused to a red fluorescent protein (RFP) and a nuclear localization signal (NLS). Lentivirus expressing the RFP-NLS-IPS-1 was used to transduce the above Rluc subgenomic HCV replicon cell line, and the effect of compounds on the location of RFP-NLS was examined using fluorescence microscopy.

Which results are given for `Cc1ccc2nc(-c3ccc4nc(-c5ccc(NC(=O)c6cccc(Cl)c6)cc5)sc4c3)sc2c1S(=O)(=O)O` [Compound 17, 2′-(4-(3-chlorobenzamido)phenyl)-6-methyl-[2,6′-bibenzo[d]thiazole]-7-sulfonic acid]?
Plasma Stability Human [1]: 96.6%; Aqueous Stability [2]: 100%; times less potent protease inhibitor than compound P4 ([3]; versus P4): 50 times; fraction unbound at 4 h, 1 μM ([4]; pH 7.4, 1 μM, read-out: Plasma Protein Binding (% Bound) Human (converted)): 0.02; fraction unbound at 4 h, 10 μM ([4]; pH 7.4, 10 μM, read-out: Plasma Protein Binding (% Bound) Human): 0.01; fraction unbound at 4 h, 1 μM ([5]; pH 7.4, 1 μM, read-out: Plasma Protein Binding (% Bound) Mouse (converted)): 0.02; fraction unbound at 4 h, 10 μM ([5]; pH 7.4, 10 μM, read-out: Plasma Protein Binding (% Bound) Mouse): 0.01

Which “nuclear translocation of RFP-NLS (cellular NS3 protease activity)” value [6] does the source give for `Cc1ccc2nc(-c3ccc4nc(-c5ccc(NC(=O)c6cc(C(F)(F)F)cc(C(F)(F)F)c6)cc5)sc4c3)sc2c1S(=O)(=O)O` [Compound 24, 2′-(4-(3,5-bis(trifluoromethyl)benzamido)phenyl)-6-methyl-[2,6′-bibenzo[d]thiazole]-7-sulfonic acid] here?
Its value is “did not inhibit nuclear translocation”.

Which inhibition at 100 µM ([3]; read-out: inhibition of protease) does the source give for `Cc1ccc2nc(-c3ccc4nc(-c5ccc(N)cc5)sc4c3)sc2c1S(=O)(=O)O` [Compound P2a, 2′-(4-aminophenyl)-6-methyl-[2,6′-bibenzo[d]thiazole]-7-sulfonic acid] here?
Its inhibition at 100 µM is ≤ 50%.
